Test results published in ChEMBL document CHEMBL5338751, “Discovery of the First-in-Class Intestinal Restricted FXR and FABP1 Dual Modulator ZLY28 for the Treatment of Nonalcoholic Fatty Liver Disease” (J Med Chem, 2023).
Activity calls are given as the source filed them. The calls are words filed in the database; no cut-off is given here.

Legend:
[1] = target: T1, Bile acid receptor (Homo sapiens, UniProt Q96RI1); assay: Agonist activity at FXR (unknown origin) expressed in human HepG2 cells co-transfected with human RXR assessed as luciferase activity incubated for 24 hrs by cell-based luciferase assay
T1 sequence (Q96RI1 whole entry): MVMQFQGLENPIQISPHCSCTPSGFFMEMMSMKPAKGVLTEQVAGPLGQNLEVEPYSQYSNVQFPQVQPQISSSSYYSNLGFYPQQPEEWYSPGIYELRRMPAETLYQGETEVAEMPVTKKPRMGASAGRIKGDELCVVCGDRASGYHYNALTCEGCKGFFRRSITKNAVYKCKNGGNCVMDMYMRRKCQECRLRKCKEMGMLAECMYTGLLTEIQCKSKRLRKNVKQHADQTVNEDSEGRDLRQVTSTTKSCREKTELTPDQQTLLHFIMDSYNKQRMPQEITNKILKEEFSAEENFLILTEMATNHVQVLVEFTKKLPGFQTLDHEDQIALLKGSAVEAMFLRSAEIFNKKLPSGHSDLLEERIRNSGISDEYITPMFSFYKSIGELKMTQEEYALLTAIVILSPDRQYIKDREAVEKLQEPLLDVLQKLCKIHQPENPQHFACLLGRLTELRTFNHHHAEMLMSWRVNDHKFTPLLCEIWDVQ

[2] = target: T2, Fatty acid-binding protein, liver (Homo sapiens) (UniProt P07148); assay: Displacement of 8-anilino-1-naphthalene-sulfonic acid from FABP1 (unknown origin) at 10 uM incubated for 3 mins by fluorescence based assay relative to control
T2 sequence (whole entry): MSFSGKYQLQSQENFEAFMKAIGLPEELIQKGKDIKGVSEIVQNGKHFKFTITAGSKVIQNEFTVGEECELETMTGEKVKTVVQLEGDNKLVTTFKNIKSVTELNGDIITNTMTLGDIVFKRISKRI

[3] = Metabolic stability in Sprague-Dawley rat liver microsomes assessed as parent compound remaining incubated for 1 hr by LC-MS analysis; type: ADME, Microsome; conditions: read-out: Stability
[4] = Metabolic stability in Beagle dog liver microsomes assessed as parent compound remaining incubated for 1 hr by LC-MS analysis; type: ADME, Canis lupus familiaris, Microsome; conditions: read-out: Stability
[5] = Metabolic stability in human liver microsomes assessed as parent compound remaining incubated for 1 hr by LC-MS analysis; type: ADME, Microsome; conditions: read-out: Stability
[6] = target: T3, Peroxisome proliferator-activated receptor gamma (Homo sapiens, UniProt P37231); assay: Agonist activity at PPARgamma (unknown origin) transfected in HEK293 cells incubated for 18 hrs by renilla/firefly based dual-glo luciferase assay; type: cell-based
T3 sequence (P37231 whole entry): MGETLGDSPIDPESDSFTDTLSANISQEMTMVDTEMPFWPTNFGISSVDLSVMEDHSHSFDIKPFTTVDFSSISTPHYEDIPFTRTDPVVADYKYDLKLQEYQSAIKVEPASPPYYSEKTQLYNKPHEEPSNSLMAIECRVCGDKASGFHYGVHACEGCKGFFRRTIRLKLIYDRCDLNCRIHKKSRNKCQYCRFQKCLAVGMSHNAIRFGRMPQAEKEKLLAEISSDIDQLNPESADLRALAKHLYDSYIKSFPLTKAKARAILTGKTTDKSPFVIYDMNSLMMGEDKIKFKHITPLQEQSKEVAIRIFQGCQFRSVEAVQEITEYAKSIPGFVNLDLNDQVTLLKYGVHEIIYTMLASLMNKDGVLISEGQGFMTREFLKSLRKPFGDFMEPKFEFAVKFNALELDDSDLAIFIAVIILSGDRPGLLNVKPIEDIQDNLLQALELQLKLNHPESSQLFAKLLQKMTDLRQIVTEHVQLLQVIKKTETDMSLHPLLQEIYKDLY

[7] = Activation of Gal-DBD and NHRLBD fused RXRalpha (unknown origin) transfected in African green monkey CV-1 cells by luciferase reporter assay; type: cell-based; conditions: Homo sapiens
[8] = target: Androgen receptor (Homo sapiens, UniProt P10275); assay: Activation of Gal-DBD and NHRLBD fused AR (unknown origin) transfected in African green monkey CV-1 cells by luciferase reporter assay; type: cell-based
[9] = target: Free fatty acid receptor 1 (Homo sapiens, UniProt O14842); assay: Agonist activity at human FFA1 stably expressed in CHO cells assessed as intracellular calcium flux by FLIPR assay; type: functional, cell-based
[10] = target: Fatty acid-binding protein, heart (Homo sapiens, UniProt P05413); assay: Displacement of 8-anilino-1-naphthalene-sulfonic acid from FABP3 (unknown origin) incubated for 3 mins by fluorescence based assay
[11] = target: T4, Bile acid receptor (Mus musculus) (UniProt Q60641); assay: Activation of FXR in C57BL/6 mouse ileum assessed as upregulation of FGF15 gene expression in ileum at 20 mg/kg, po administered for 5 days and measured after 1 hr post final dose by RT-PCR analysis; type: organism-based; conditions: filed as activator, time 5.0 day
T4 sequence (whole entry): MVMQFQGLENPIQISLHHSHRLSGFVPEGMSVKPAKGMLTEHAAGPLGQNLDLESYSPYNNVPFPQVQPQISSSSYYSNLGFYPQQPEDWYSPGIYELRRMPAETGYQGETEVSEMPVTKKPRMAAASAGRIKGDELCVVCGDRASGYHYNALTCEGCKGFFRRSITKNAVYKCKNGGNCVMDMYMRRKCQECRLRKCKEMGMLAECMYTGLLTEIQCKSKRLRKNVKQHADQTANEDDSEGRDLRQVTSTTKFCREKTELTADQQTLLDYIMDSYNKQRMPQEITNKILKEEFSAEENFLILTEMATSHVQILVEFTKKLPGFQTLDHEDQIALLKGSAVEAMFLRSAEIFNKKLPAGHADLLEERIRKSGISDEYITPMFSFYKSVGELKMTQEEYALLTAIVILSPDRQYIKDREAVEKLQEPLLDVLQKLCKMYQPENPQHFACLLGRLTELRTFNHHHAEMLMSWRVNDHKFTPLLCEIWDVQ

[12] = test system: Mus musculus; assay: Anti-NASH activity in western diet and CCl4-induced nonalcoholic steatohepatitis C57BL/6 mouse assessed as downregulation of TNFalpha expression level at 20 mg/kg, po administered for 12 weeks starting from week 8 and change in dose for every 5 days by ELISA; type: functional, organism-based; conditions: time 4.0 weeks
[13] = test system: Mus musculus; assay: Anti-NASH activity in western diet and CCl4-induced nonalcoholic steatohepatitis C57BL/6 mouse assessed as downregulation of F4/80 expression level at 20 mg/kg, po administered for 12 weeks starting from week 8 and change in dose for every 5 days; type: functional, organism-based; conditions: time 4.0 weeks
[14] = target: T4, Bile acid receptor (Mus musculus); assay: In vivo activation of FXR pathway in western diet and CCl4-induced nonalcoholic steatohepatitis C57BL/6 mouse model assessed as downregulation of CYP7A1 mRNA level in […] at 20 mg/kg, po administered for 12 weeks starting from week 8 and change in dose for every 5 days; type: functional, organism-based; conditions: time 4.0 weeks
[15] = target: T4, Bile acid receptor (Mus musculus); assay: In vivo activation of FXR pathway in western diet and CCl4-induced nonalcoholic steatohepatitis C57BL/6 mouse model assessed as upregulation of FGF15 gene expression in ileum at 20 mg/kg, po administered for 12 weeks starting from week 8 and change in dose for every 5 days by RT-PCR analysis; type: functional, organism-based; conditions: time 4.0 weeks
[16] = Subacute toxicity in ICR mouse assessed as changes in food intake at 500 mg/kg/day, po administered for 14 days; type: organism-based; conditions: in vivo, 336 h, time 14 day
[17] = Subacute toxicity in ICR mouse assessed as changes in serum UA level at 500 mg/kg/day, po administered for 14 days; type: organism-based; conditions: in vivo, 336 h, time 14 day

Sequence of Fatty acid-binding protein, heart (P05413 whole entry): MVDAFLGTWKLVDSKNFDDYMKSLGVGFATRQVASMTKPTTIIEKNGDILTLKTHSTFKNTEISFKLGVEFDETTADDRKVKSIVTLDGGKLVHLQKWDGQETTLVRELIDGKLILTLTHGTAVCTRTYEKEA
Sequence of Androgen receptor (P10275 whole entry, the tested form may be a part): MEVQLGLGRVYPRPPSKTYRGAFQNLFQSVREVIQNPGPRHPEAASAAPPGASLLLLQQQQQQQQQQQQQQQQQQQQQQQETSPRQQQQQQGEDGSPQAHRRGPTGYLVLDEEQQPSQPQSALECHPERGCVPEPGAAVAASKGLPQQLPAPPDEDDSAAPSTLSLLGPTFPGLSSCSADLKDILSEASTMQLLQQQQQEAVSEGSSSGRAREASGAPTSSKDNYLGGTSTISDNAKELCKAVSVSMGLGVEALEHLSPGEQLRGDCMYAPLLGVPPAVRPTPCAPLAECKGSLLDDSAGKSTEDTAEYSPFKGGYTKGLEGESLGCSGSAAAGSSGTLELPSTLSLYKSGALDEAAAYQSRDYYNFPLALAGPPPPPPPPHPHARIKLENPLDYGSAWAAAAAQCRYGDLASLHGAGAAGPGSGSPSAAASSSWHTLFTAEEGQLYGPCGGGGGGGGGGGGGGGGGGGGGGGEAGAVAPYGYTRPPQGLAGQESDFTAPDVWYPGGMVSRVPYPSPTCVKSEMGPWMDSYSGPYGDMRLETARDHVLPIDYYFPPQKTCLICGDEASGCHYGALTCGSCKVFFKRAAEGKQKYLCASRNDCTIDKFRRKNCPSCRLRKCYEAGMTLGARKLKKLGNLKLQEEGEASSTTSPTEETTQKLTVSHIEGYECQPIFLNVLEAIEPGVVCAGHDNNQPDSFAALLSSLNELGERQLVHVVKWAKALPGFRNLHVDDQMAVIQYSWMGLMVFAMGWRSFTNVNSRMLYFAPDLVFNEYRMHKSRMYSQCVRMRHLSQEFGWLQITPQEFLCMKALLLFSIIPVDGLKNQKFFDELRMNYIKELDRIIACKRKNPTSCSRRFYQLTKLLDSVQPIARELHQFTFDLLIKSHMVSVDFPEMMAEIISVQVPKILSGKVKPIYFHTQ
Sequence of Free fatty acid receptor 1 (O14842 whole entry): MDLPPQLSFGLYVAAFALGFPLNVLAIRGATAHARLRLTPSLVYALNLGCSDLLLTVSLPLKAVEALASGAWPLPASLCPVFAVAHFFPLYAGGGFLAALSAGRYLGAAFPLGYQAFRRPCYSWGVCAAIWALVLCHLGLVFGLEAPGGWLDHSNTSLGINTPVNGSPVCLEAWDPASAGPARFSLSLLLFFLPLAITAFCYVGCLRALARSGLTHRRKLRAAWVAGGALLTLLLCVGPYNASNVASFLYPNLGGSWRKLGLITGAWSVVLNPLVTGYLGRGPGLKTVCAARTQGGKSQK

## O=C(O)C1(c2cccc(-c3ccc(OCc4c(-c5c(Cl)cccc5Cl)noc4C4CC4)cc3)c2)CC1
[1]
  EC50: 0.491 µM
[2]
  inhibition: 83.6%
[3]
  remaining at 1 h: 68.6%
[4]
  remaining at 1 h: 57.4%
[5]
  remaining at 1 h: 71.6%
[6]
  EC50: > 10 µM
[7]
  EC50: > 10 µM
[8]
  EC50: > 10 µM
[9]
  EC50: > 10 µM
[10]
  IC50: > 30 µM
[11]
  Activity: Active
[12]
  Activity: Active
[13]
  Activity: Active
[14]
  Activity: Active
[15]
  Activity: Active
[16]
  Activity: Non-Toxic
[17]
  Activity: Non-Toxic
